Patent publication US20130066055A1, “NEW BINDER-DRUG CONJUGATES (ADCS) AND USE THEREOF” (Bayer Intellectual Property GmbH, priority 2011, published 2013)
Counter-ions that a name gives are not always drawn. Square brackets hold non-standard residues; d marks the D form. Peptide text beside a SMILES is read from it. * marks the point of attachment. X1 = CC(C)[C@@H](C(=O)*)N(C)CCCCCC(=O)NCCCC[C@H](N)C(=O)O; Dolaproine = CO[C@@H]([C@@H]1CCCN1)[C@@H](C)C(=O)O; Dil = CC[C@H](C)[C@H](NC)[C@@H](CC(=O)O)OC; X5 = C[C@@H](N*)[C@@H](O)c1ccccc1; Oxazinan2yl(1,2) = C1CCN(*)OC1; NMeV = CN[C@H](C(=O)O)C(C)C

Key:
Caco-2 cells = assay: Caco-2 flux assay for cell permeability; type: in vitro ADME; details: basal to apical, 2 hours
Method: (§1) The cell permeability of a substance can be investigated by means of in vitro testing in a flux assay using Caco-2 cells [M. D. Troutman and D. R. Thakker, Pharm. Res. 20 (8), 1210-1224 (2003)]. For this purpose, the cells were cultured for 15-16 days on 24-well filter plates. For the determination of permeation, the respective working example was applied in a HEPES buffer to the cells either apically (A) or basally (B) and incubated for 2 hours. After 0 hours and after 2 hours, samples were taken from the cis and trans compartments. The samples were separated by HPLC (Agilent 1200, Böblingen, Germany) using reverse phase columns. The HPLC system was coupled via a Turbo Ion Spray Interface to a Triple Quadropol mass spectrometer API 4000 (Applied Biosystems Applera, Darmstadt, Germany). The permeability was evaluated on the basis of a Papp value, which was calculated using the formula published by Schwab et al. [D. Schwab et al., J. Med. Chem. 46, 1716-1725 (2003)].

tubulin = assay: Fluorescence-based microtubule (tubulin) polymerization assay; type: biochemical
Method: Tubulin polymerization was investigated using the “Fluorescence-based Microtubule Polymerisation Assay Kit” from Cytoskeleton (Denver, Colo., USA; order number: BK011). With this assay, GTP is added to unpolymerized tubulin, allowing polymerization to take place spontaneously. The assay is based on the binding of the fluorophore 4′,6-di-amidino-2-phenylindole (DAPI) to tubulin. Free and bound DAPI can be differentiated on the basis of different emission spectra.
[…] In addition to the buffer control, paclitaxel, with a polymerization-increasing effect, and vinblastin, with a polymerization inhibiting effect, were run additionally as assay controls. Measurement was carried out using 96-well plates with a half base area. The kinetics of the tubulin polymerization were monitored in a Fluorimeter at 37° C. for 1 hour. The excitation wavelength was 355 nm, and emission was monitored at 460 nm. For the region of linear increase within the first 10 minutes, a calculation was made of the change in fluorescence per minute (ΔF/min), which represents the polymerization rate of the microtubuli. The potency of the test substances was quantified on the basis of their respective reduction of the polymerization rate.

[1] = Caco-2 flux assay for cell permeability; type: in vitro ADME; details: human, Caco-2 cells, basal to apical
Method: as §1

[2] = target: T1, P-glycoprotein (P-gp, ABCB1) (Homo sapiens, UniProt P08183); assay: Flux assay in P-gp overexpressing L-MDR1 cells; type: in vitro ADME; details: LLC-PK1, basal to apical
T1 construct: expressed in transfected cells; host or cells: LLC-PK1 (pig kidney) cells transfected with human MDR1 (L-MDR1 cells)
Method: The substrate properties of a substance for P-gp (ABCB1) were determined by means of a flux assay using LLC-PK1 cells which overexpress P-gp (L-MDR1 cells) [A. H. Schinkel et al., J. Clin. Invest. 96, 1698-1705 (1995)]. For this purpose, the LLC-PK1 cells or L-MDR1 cells were cultured on 96-well filter plates for 3-4 days. For determination of the permeation, the respective test substance, alone or in the presence of an inhibitor (such as Ivermectin or Verapamil, for example), was applied in a HEPES buffer to the cells either apically (A) or basally (B) and incubated for 2 hours. After 0 hours and after 2 hours, samples were taken from the cis and trans compartments. The samples were separated by HPLC using reverse phase columns. The HPLC system was coupled via a Turbo Ion Spray Interface to a Triple Quadropol mass spectrometer API 3000 (Applied Biosystems Applera, Darmstadt, Germany). The permeability was evaluated on the basis of a Papp value which was calculated using the formula published by Schwab et al. [D. Schwab et al., J. Med. Chem. 46, 1716-1725 (2003)].

T1 sequence (P08183 whole entry): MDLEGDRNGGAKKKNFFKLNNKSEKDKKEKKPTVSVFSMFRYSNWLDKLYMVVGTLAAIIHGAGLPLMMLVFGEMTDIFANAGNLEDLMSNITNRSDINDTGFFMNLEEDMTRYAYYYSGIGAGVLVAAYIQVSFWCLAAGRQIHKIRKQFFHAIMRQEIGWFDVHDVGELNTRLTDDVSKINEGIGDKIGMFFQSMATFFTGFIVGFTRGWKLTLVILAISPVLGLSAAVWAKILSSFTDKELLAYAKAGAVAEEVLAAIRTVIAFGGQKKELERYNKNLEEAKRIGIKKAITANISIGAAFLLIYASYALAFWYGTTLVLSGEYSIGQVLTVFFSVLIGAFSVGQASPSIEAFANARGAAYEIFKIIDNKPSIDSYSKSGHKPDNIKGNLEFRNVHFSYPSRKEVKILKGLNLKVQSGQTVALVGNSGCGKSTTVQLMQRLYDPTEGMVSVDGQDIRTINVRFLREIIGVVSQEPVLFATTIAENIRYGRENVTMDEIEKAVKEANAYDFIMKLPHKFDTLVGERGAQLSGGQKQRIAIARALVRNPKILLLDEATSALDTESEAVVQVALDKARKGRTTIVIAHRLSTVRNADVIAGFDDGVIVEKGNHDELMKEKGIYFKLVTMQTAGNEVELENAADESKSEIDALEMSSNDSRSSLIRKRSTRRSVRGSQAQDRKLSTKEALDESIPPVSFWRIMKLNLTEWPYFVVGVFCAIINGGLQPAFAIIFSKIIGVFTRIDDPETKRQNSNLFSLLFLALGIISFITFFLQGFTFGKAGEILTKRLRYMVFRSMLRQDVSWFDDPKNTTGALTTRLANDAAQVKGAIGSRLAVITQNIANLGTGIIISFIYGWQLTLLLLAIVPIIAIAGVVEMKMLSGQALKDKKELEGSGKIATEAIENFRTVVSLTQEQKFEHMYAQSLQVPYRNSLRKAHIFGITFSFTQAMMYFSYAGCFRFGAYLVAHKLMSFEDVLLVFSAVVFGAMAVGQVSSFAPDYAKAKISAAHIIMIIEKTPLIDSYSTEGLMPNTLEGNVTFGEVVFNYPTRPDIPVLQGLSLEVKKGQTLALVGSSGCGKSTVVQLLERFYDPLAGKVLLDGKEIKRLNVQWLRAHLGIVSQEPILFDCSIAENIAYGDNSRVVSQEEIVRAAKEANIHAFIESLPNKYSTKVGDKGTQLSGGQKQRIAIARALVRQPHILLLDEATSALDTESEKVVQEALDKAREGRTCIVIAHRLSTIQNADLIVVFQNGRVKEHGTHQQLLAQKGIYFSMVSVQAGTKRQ

SMILES | Papp (B-A) (Caco-2 cells) [×10⁻⁶ cm/s] | inhibition of tubulin polymerization (tubulin) | Tubulin polymerization in the presence of toxophore in [%]. Tubulin polymerization rate at 1 μM MMAF set at 100% (tubulin; toxophore 1 μM) [%] | Tubulin polymerization in the presence of toxophore in [%]. Tubulin polymerization rate at 1 μM MMAF set at 100% (tubulin; toxophore 10 μM) [%] | Papp B→A at 2 h [1] [×10⁻⁶ cm/s] | Papp B→A at 2 h [2] [×10⁻⁶ cm/s]
CC[C@H](C)[C@@H]([C@@H](CC(=O)N1CCC[C@H]1[C@H](OC)[C@@H](C)C(=O)N[C@@H](Cc1ccccc1)C(=O)O)OC)N(C)C(=O)[C@@H](NC(=O)[C@@H](NC)C(C)C)C(C)C [MMAF, Monomethylauristatin F, reference compound] (H-[NMeV]V[Dil][Dolaproine]F-OH) | 7.3 | inhibit tubulin polymerization as a function of their concentration | 100 | 34 | – | –
CC[C@H](C)[C@@H]([C@@H](CC(=O)N1CCC[C@H]1[C@H](OC)[C@@H](C)C(=O)N[C@@H](Cc1c[nH]c2ccccc12)C(=O)O)OC)N(C)C(=O)[C@@H](NC(=O)[C@H](C(C)C)N(C)CCCCCC(=O)NCCCC[C@H](N)C(=O)O)C(C)C [Example 116, N-(6-{[(5S)-5-Amino-5-carboxypentyl]amino}-6-oxohexyl)-N-methyl-L-valyl-N-[(3R,4S,5S)-1-{(2S)-2-[(1R,2R)-3-{[(1S)-1-carboxy-2-(1H-indol-3-yl)ethyl]amino}-1-methoxy-2-methyl-3-oxopropyl]pyrrolidin-1-yl}-3-methoxy-5-methyl-1-oxoheptan-4-yl]-N-methyl-L-valinamide] (X1-V[Dil][Dolaproine]W-OH) | – | – | 80 | 14 | 0.1 | 0.4
CC[C@H](C)[C@@H]([C@@H](CC(=O)N1CCC[C@H]1[C@H](OC)[C@@H](C)C(=O)N[C@@H](Cc1c[nH]c2ccccc12)C(N)=O)OC)N(C)C(=O)[C@@H](NC(=O)[C@H](C(C)C)N(C)CCCC(=O)NNC(=O)CCCCCN1C(=O)CC(SC[C@H](N)C(=O)O)C1=O)C(C)C (stereo partly drawn) [Example 71, N-(4-{2-[6-(3-{[(2R)-2-Amino-2-carboxyethyl]sulphanyl}-2,5-dioxopyrrolidin-1-yl)hexanoyl]hydrazino}-4-oxobutyl)-N-methyl-L-valyl-N-[(3R,4S,5S)-1-{(2S)-2-[(1R,2R)-3-{[(2S)-1-amino-3-(1H-indol-3-yl)-1-oxopropan-2-yl]amino}-1-methoxy-2-methyl-3-oxopropyl]pyrrolidin-1-yl}-3-methoxy-5-methyl-1-oxoheptan-4-yl]-N-methyl-L-valinamide] | – | – | 88 | 25 | 0.2 | 0.3
CC[C@H](C)[C@@H]([C@@H](CC(=O)N1CCC[C@H]1[C@H](OC)[C@@H](C)C(=O)N[C@@]1(C(=O)N2CCCCO2)C[C@@H]1c1ccccc1)OC)N(C)C(=O)[C@@H](NC(=O)[C@H](C(C)C)N(C)CCCC(=O)NNC(=O)CCCCCN1C(=O)CC(SC[C@H](N)C(=O)O)C1=O)C(C)C (stereo partly drawn) [Example 73, N-(4-{2-[6-(3-{[(2R)-2-Amino-2-carboxyethyl]sulphanyl}-2,5-dioxopyrrolidin-1-yl)hexanoyl]hydrazino}-4-oxobutyl)-N-methyl-L-valyl-N-[(3R,4S,5S)-3-methoxy-1-{(2S)-2-[(1R,2R)-1-methoxy-2-methyl-3-{[(1S,2R)-1-(1,2-oxazinan-2-ylcarbonyl)-2-phenylcyclopropyl]amino}-3-oxopropyl]pyrrolidin-1-yl}-5-methyl-1-oxoheptan-4-yl]-N-methyl-L-valinamide] | – | – | 120 | – | 0.25 | 0.21
CC[C@H](C)[C@@H]([C@@H](CC(=O)N1CCC[C@H]1[C@H](OC)[C@@H](C)C(=O)N[C@@H](Cc1c[nH]c2ccccc12)C(=O)N1CCCCO1)OC)N(C)C(=O)[C@@H](NC(=O)[C@H](C(C)C)N(C)CCCCCC(=O)NCCCC[C@H](N)C(=O)O)C(C)C [Example 115, N-(6-{[(5S)-5-Amino-5-carboxypentyl]amino}-6-oxohexyl)-N-methyl-L-valyl-N-[(3R,4S,5S)-1-{(2S)-2-[(1R,2R)-3-{[(2S)-3-(1H-indol-3-yl)-1-(1,2-oxazinan-2-yl)-1-oxopropan-2-yl]amino}-1-methoxy-2-methyl-3-oxopropyl]pyrrolidin-1-yl}-3-methoxy-5-methyl-1-oxoheptan-4-yl]-N-methyl-L-valinamide trifluoroacetate] (X1-V[Dil][Dolaproine]W-{Oxazinan2yl(1,2)}) | – | – | 45 | 1 | 0.2 | 0.6
CC[C@H](C)[C@@H]([C@@H](CC(=O)N1CCC[C@H]1[C@H](OC)[C@@H](C)C(=O)N[C@@H](Cc1c[nH]c2ccccc12)C(=O)NCc1ccccc1)OC)N(C)C(=O)[C@@H](NC(=O)[C@H](C(C)C)N(C)CCCC(=O)NNC(=O)CCCCCN1C(=O)CC(SC[C@H](N)C(=O)O)C1=O)C(C)C (stereo partly drawn) [Example 77, N-(4-{2-[6-(3-{[(2R)-2-Amino-2-carboxyethyl]sulphanyl}-2,5-dioxopyrrolidin-1-yl)hexanoyl]hydrazino}-4-oxobutyl)-N-methyl-L-valyl-N-[(3R,4S,5S)-1-{(2S)-2-[(1R,2R)-3-{[(2S)-1-(benzylamino)-3-(1H-indol-3-yl)-1-oxopropan-2-yl]amino}-1-methoxy-2-methyl-3-oxopropyl]pyrrolidin-1-yl}-3-methoxy-5-methyl-1-oxoheptan-4-yl]-N-methyl-L-valinamide] | – | – | 111 | 45 | 0.7 | 0.2
CC[C@H](C)[C@@H]([C@@H](CC(=O)N1CCC[C@H]1[C@H](OC)[C@@H](C)C(=O)N[C@H](C)[C@@H](O)c1ccccc1)OC)N(C)C(=O)[C@@H](NC(=O)[C@@H](NC)C(C)C)C(C)C [MMAE, monomethylauristatin E, reference compound] (H-[NMeV]V[Dil][Dolaproine]-X5) | 7.3 | – | – | – | – | –
